Assay results published in US12280032B2, “Methods and compositions for increasing the potency of antifungal agents” (Pacific Northwest Research Institute, priority 2014, dated 2025).

Columns and labels:
S. cerevisiae Strain F45 = assay: Zones of growth inhibition on YPD plates containing 10 mM Enamine compound with 50 μg fluconazole disk; assay type: cell-based, Saccharomyces cerevisiae
Experimental: Zones of Growth Inhibition were Measured for the S. cerevisiae Strain F45 on YPD Plates Containing 10 mM of the Enamine Compound with a 50 μg Fluconazole Disk Applied.
Zones of growth inhibition were also measured for strain F45 in which F45 strains were spread on YPD plates that contained 10 mM of an Enamine compound which was poured into the plate, with a 50 μg fluconazole disk. Enamine is an unsaturated compound derived by the condensation of an aldehyde or ketone with a secondary amine Some enmities have structures that are similar to PE, as such, they were tested to measure their efficacy in increasing sensitivity to an antifungal.

S. cerevisiae (F45) = assay: YPD plate assay with antifungal filter disk, with or without PE; assay type: cell-based, Saccharomyces cerevisiae; parameters: Degree of clearance: unit not given here
[1] = tested on: Aspergillus fumigatus (ATCC 13073); assay: M.I.C. determination; assay type: cell-based; details: drug alone
[2] = tested on: Cryptococcus neoformans (ATCC 24067); assay: M.I.C. determination; assay type: cell-based; details: drug alone
[3] = tested on: Candida glabrata (ATCC 36583); assay: M.I.C. determination; assay type: cell-based; details: drug alone
the fungus = assay: Effects of antifungals in the presence of PE (FIG. 4); assay type: cell-based; details: PE used in conjunction with the antifungal
[4] = tested on: Candida krusei (ATCC 6258); assay: M.I.C. determination; assay type: cell-based; details: drug alone
BY4741 lab strain = assay: YPD plate assay with nystatin disk, with or without PE; assay type: cell-based, Saccharomyces cerevisiae; details: FIG. 9 Panel B
Experimental: In each panel, the top plate is YPD alone with a disc that contains DMSO, the bottom left plate is YPD alone with a disc that contains 50 μg Nystatin and the bottom right plate is YPD plus 10 mM PE with a disc that contains 50 μg Nystatin. The plates in FIG. 9, panel A are spread with the F45 strain. The plates in FIG. 9, panel B are spread with the BY4741 lab strain.
In each panel, the top plate is YPD alone with a disc that contains DMSO, the bottom left plate is YPD alone with a disc that contains 50 μg Nystatin and the bottom right plate is YPD plus 10 mM PE with a disc that contains 50 μg Nystatin. The plates in panel are spread with the F45 strain (FIG. 9, panel A), The plates in FIG. 9, panel Bare spread with the BY4741 lab strain.

[5] = tested on: S. cerevisiae biofilm formation; assay: Biofilm formation (colony morphology); assay type: cell-based, Saccharomyces cerevisiae; details: determined by colony morphology; previous experiments
Experimental: In each panel, the left plate is YPD alone and the right plate is YPD plus 10 mM PE (a concentration that inhibits the fluffy colony morphology). Each plate also contains a paper disk containing the DMSO vehicle (FIG. 1, panel A), 25 μg fluconazole (FIG. 1, panel B), 50 μg fluconazole (FIG. 1, panel C), or 100 μg fluconazole (FIG. 1, panel D).
However, previous experiments determined that biofilm formation was inhibited at PE concentrations of 10 mM or higher. Attention is drawn to FIG. 2, in which concentrations of PE that were too low to inhibit biofilm formation (determined by colony morphology) were also shown to increase the sensitivity of the yeast strain flo11D for the fluconazole which further support the hypothesis that the effect of PE on drug sensitivity is independent of its effect on biofilm formation. As such, there is a synergistic effect upon the combination of PE with fluconazole, in which the cells are more sensitive to fluconazole in the presence of PE at a higher concentration (10 mM PE). […] It is noted that even at lower concentrations of PE (<10 mM), in which the colonies are fluffy, indicating an intact cell wall or intact morphology, the PE at lower concentrations can still enhance killing by fluconazole. […] As such, even at a lower concentration, PE in combination with fluconazole has a synergistic effect on inhibiting the growth of the fungal strain.

[6] = tested on: C. albicans fluconazole resistant strain R357; assay: YPD plate assay with antifungal filter disk, with or without PE; assay type: cell-based, Candida albicans; parameters: unit not given here; details: C. albicans strain 8357
[7] = tested on: Candida glabrata (ATCC 36583); assay: Checkerboard assay (FICI) of PE with triazole; assay type: cell-based; details: named triazole in combination with PE
[8] = tested on: Candida parapsilosis (ATCC 22019); assay: M.I.C. determination; assay type: cell-based; details: drug alone
[9] = tested on: Candida parapsilosis (ATCC 22019); assay: Checkerboard assay (FICI) of PE with triazole; assay type: cell-based; details: named triazole in combination with PE
[10] = tested on: Cryptococcus neoformans (ATCC 24067); assay: Checkerboard assay (FICI) of PE with triazole; assay type: cell-based; details: named triazole in combination with PE
[11] = tested on: Candida albicans (sensitive=ATCC 90028); assay: M.I.C. determination; assay type: cell-based; details: drug alone
[12] = tested on: Aspergillus fumigatus (ATCC 13073); assay: Checkerboard assay (FICI) of PE with triazole; assay type: cell-based; details: named triazole in combination with PE
[13] = tested on: Candida krusei (ATCC 6258); assay: Checkerboard assay (FICI) of PE with triazole; assay type: cell-based; details: named triazole in combination with PE
[14] = tested on: Candida albicans (resistant=20186.025; 8357); assay: Checkerboard assay (FICI) of PE with triazole; assay type: cell-based; details: named triazole in combination with PE
[15] = tested on: Candida tropicalis (ATCC 200956); assay: Checkerboard assay (FICI) of PE with triazole; assay type: cell-based; details: named triazole in combination with PE
[16] = tested on: Candida albicans (sensitive=ATCC 90028); assay: Checkerboard assay (FICI) of PE with triazole; assay type: cell-based; details: named triazole in combination with PE
[17] = tested on: Candida albicans (resistant=20186.025; 8357); assay: M.I.C. determination; assay type: cell-based; details: drug alone
[18] = tested on: Candida tropicalis (ATCC 200956); assay: M.I.C. determination; assay type: cell-based; details: drug alone
[19] = 10 mM compound in YPD, 50 μg fluconazole disk, F45

In the case of `CC(O)c1cccc(O)c1` (stereo not drawn) [A], the “Fluconazole Zone Size” value (S. cerevisiae Strain F45) is reported as 11 mm.
In the case of `OCc1ccccc1` [B], the “Fluconazole Zone Size” value (S. cerevisiae Strain F45) is reported as 11 mm.
`CC[C@H](C)C[C@H](C)CCCCCCCCC(=O)N[C@H]1C[C@@H](O)[C@@H](NCCN)NC(=O)[C@@H]2[C@@H](O)CCN2C(=O)[C@H]([C@H](O)CCN)NC(=O)[C@H]([C@H](O)[C@@H](O)c2ccc(O)cc2)NC(=O)[C@@H]2C[C@@H](O)CN2C(=O)[C@H]([C@@H](C)O)NC1=O` [Caspofungin] was tested, and the Degree of clearance (S. cerevisiae (F45); FIG. 8 Panel A, YPD + 10 mM PE 50 μg Caspofungin (so in the source), F45) was 0 and the Degree of clearance (S. cerevisiae (F45); FIG. 8 Panel E, YPD + 10 mM PE + 200 μg Caspofungin, F45) was 0.
For `Nc1ccc(CCO)cc1` [Compound C], the “Fluconazole Zone Size” value (S. cerevisiae Strain F45) was 13 mm.
With `C[C@H](O)c1cccc(C#N)c1` [D] the “Fluconazole Zone Size” value (S. cerevisiae Strain F45) was 17 mm.
In the case of `OCCNCCc1ccccc1` [E], the “Fluconazole Zone Size” value (S. cerevisiae Strain F45) is reported as 35 mm, the “Activity compared with PE” value (S. cerevisiae Strain F45; [19]) is reported as “activity greater than PE” and the “Growth of fungal cells on the plate with fluconazole” value (from here on “Growth of fungal cells on the plate”) (S. cerevisiae Strain F45; [19]) is reported as “loss of growth”.
With `CCc1ccc(N)cc1` [F] the “Fluconazole Zone Size” value (S. cerevisiae Strain F45) was “inhibition by compound but not fluconazole”.
For `OC(Cn1cncn1)(Cn1cncn1)c1ccc(F)cc1F` [Fluconazole], the MIC [1] was over 128 µg, the MIC [2] was 0.25 µg and the MIC [3] was 8 µg. The “Sensitivity of the fungus to the antifungal in the presence of PE” value (“Sensitivity of the fungus” below) (the fungus) was “increased the sensitivity” and the MIC [4] was 32 µg.
`Nc1[nH]c(=O)ncc1F` [Flucytosine] was tested, and the “Sensitivity of the fungus” value (the fungus) was “increased the sensitivity”.
For `CC(C)Cc1ccc(CCCO)cc1` [G], the “Fluconazole Zone Size” value (S. cerevisiae Strain F45) was “inhibition by compound but not fluconazole”.
With `OC1(Cc2ccccc2)CCCC1` [H] the “Fluconazole Zone Size” value (S. cerevisiae Strain F45) was “no growth” and the “Growth of fungal cells on the plate” value (S. cerevisiae Strain F45; [19]) was “loss of growth”.
`NCCCCOCCc1ccccc1` [I] was tested, and the “Fluconazole Zone Size” value (S. cerevisiae Strain F45) was “no growth” and the “Growth of fungal cells on the plate” value (S. cerevisiae Strain F45; [19]) was “loss of growth”.
In the case of `OCCc1cccc(Cl)c1` [J], the “Fluconazole Zone Size” value (S. cerevisiae Strain F45) is reported as “no growth” and the “Growth of fungal cells on the plate” value (S. cerevisiae Strain F45; [19]) is reported as “loss of growth”.
`C[C@@H]1[C@H](O)[C@@H](C)/C=C/C=C/CC/C=C/C=C/C=C/C=C/C(O[C@H]2O[C@H](C)[C@@H](O)[C@H](N)[C@@H]2O)CC2O[C@](O)(CC(O)C(O)CCC(O)CC(O)CC(O)CC(=O)O[C@H]1C)CC(O)C2C(=O)O` (stereo partly drawn) [Nystatin] was tested, and the Degree of clearance (BY4741 lab strain; YPD + 50 μg nystatin) was 2, the Degree of clearance (BY4741 lab strain; YPD + 10 mM PE + 50 μg nystatin) was 2 and the Degree of clearance (S. cerevisiae (F45); FIG. 9 Panel A, Strain F45, YPD + 50 μg nystatin) was 2. It also gave a Degree of clearance (S. cerevisiae (F45); FIG. 9 Panel A, Strain F45, YPD + 10 mM PE + 50 μg nystatin) of 2.
`OCCc1ccccc1` [PE, phenyl ethanol] was tested, and the “Fluconazole Zone Size” value (S. cerevisiae Strain F45) was 27 mm, the “PE concentration at which biofilm formation was inhibited” value [5] was at least 10 mM and the Degree of clearance (S. cerevisiae (F45); FIG. 6 Panel A, YPD + 10 mM PE, disk with chloroform vehicle only, F45) was 0. The “Effect of PE on caspofungin sensitivity” value (S. cerevisiae (F45); YPD plus 10 mM PE, 200 ng-50 μg caspofungin disk, F45, listed as PP) was “no effect”.
In the case of `CO[C@H]1[C@@H](O)[C@H](O)[C@H](OC[C@@]23C[C@@H]4[C@H](C)CC[C@H]4[C@@]4(C=O)CC2C=C(C(C)C)[C@@]34C(=O)O)O[C@@H]1C` [Sordarin], the Degree of clearance ([6]; FIG. 13 Panel A, YPD + 1 μg sordarin) is reported as 1, the Degree of clearance ([6]; FIG. 13 Panel A, YPD + 1 μg sordarin + 10 mM PE) is reported as 2 and the Degree of clearance ([6]; FIG. 13 Panel B, YPD + 10 μg sordarin) is reported as 2. The Degree of clearance ([6]; FIG. 13 Panel B, YPD + 10 μg sordarin + 10 mM PE) was 3, the Degree of clearance ([6]; FIG. 13 Panel C, YPD + 50 μg sordarin) was 3 and the Degree of clearance ([6]; FIG. 13 Panel C, YPD + 50 μg sordarin + 10 mM PE) was 4. The “Sensitivity of the fungus” value (the fungus) was “increased the sensitivity”, the Degree of clearance (S. cerevisiae (F45); FIG. 7 Panel A, YPD + 10 mM PE + 50 μg Sordarin, F45) was 4 and the Degree of clearance (S. cerevisiae (F45); FIG. 7 Panel A, YPD alone, 50 μg Sordarin disk, F45) was 8. For the same molecule, the Degree of clearance (S. cerevisiae (F45); FIG. 7 Panel B, YPD + 10 mM PE + 10 μg Sordarin, F45) was 3, the Degree of clearance (S. cerevisiae (F45); FIG. 7 Panel B, YPD alone, 10 μg Sordarin disk, F45) was 2 and the Degree of clearance (S. cerevisiae (F45); FIG. 7 Panel C, YPD + 10 mM PE + 1 μg Sordarin, F45) was 2. It also gave a Degree of clearance (S. cerevisiae (F45); FIG. 7 Panel C, YPD alone, 1 μg Sordarin disk, F45) of 1, a Degree of clearance (S. cerevisiae (F45); FIG. 7 Panel D, YPD + 10 mM PE + 500 μg Sordarin, F45) of 1 and a Degree of clearance (S. cerevisiae (F45); FIG. 7 Panel D, YPD alone, Sordarin disk (500 ng per legend), F45) of 0.
`C[C@@H](c1ncncc1F)[C@](O)(Cn1cncn1)c1ccc(F)cc1F` [Voriconazole] gave an FICI [7] of 1.2, an MIC [1] of 0.25 µg and an MIC [8] of 0.03125 µg. It also gave an FICI [9] of 1.6, an MIC [2] of 0.0156 µg and an FICI [10] of 1.1. The MIC [3] was 0.5 µg, the MIC [11] was 0.03125 µg and the “Sensitivity of the fungus” value (the fungus) was “increased the sensitivity”. For the same molecule, the FICI [12] was 0.6, the FICI [13] was 1.1 and the FICI [14] was 0.3. It also gave an FICI [15] of 0.6, an FICI [16] of 2.1 and an MIC [17] of over 128 µg. The MIC [4] was 0.25 µg and the MIC [18] was 32 µg.
